# Assay results from US20100278687A1, “R[…] GYPSUM BOARD USING GASEOUS CHLORINE DIOXIDE” (SABRE INTELLECTUAL PROPERTY HOLDINGS COMPANY, LLC., priority 2009, published 2010).
# Columns and labels:
# [1] = tested on: sulfate-reducing bacteria (SRBs); experiment: SRB growth test (presence/absence) on unpainted wallboard paper before and after ClO2 fumigation of a house; format: cell-based; conditions: 20 wall and ceiling cavity locations, 12 of 20 positive before treatment; 13 hours, CT 5336-9727 ppmv-hours, about 45-52% RH
# Protocol: SRBs—The efficacy of ClO2 gas in eliminating SRBs from Chinese wallboard material was evaluated by collecting samples of unpainted wallboard paper located inside wall cavities of the home prior to, and immediately after, ClO2 exposure. Unpainted wallboard paper from wall cavities was chosen for SRB testing because preliminary laboratory work done at Sabre's Slingerlands, N.Y. laboratory facility had shown SRBs to be concentrated in this media.
# Pre-treatment wallboard paper samples were collected by drilling a two-inch circular core at selected wall and ceiling locations. To avoid damaging vapor barriers present within the home, samples were not collected from any bathroom or laundry room locations. Sample locations were selected to be representative wall cavities within the structure most likely to contain conditions conducive to SRB growth. In total, 20 sample locations were selected. Nine were wall cores and eleven were ceiling cores.
# The wallboard holes created through SRB sampling were each sealed using a two-inch rubber expansion plug in order to ensure that ClO2 gas would not penetrate into wall cavities as a consequence of sampling activities.
# Post-treatment wallboard paper samples were collected by drilling an identical two-inch circular core approximately one inch away from each of the 20 pre-treatment sample locations. […]
# [2] = Olfactory observation of reduced-sulfur odors before and after treatment; conditions: Sabre personnel and independent observers; faint swimming pool like scent remained
# Excerpt: Subjective Odor Elimination—Reduced-sulfur compounds odors are extremely noxious and can be detected by the human olfactory (i.e. odor) sense at levels which are at or below the detection limits of sophisticated analytical instruments. As such, the olfactory senses of both Sabre personnel and independent observers were employed both pre- and post-treatment to gauge the effectiveness of ClO2 in ridding the test structure of reduced-sulfur compound odors.
# Odor levels emanating from within the structure were observed both pre- and post-treatment for the “putrid” characteristic commonly associated with reduced-sulfur gases such as hydrogen sulfide, carbonyl sulfide and carbon disulfide that have been definitively shown by an FDOH study as being released from Chinese wallboard.
# [3] = after fumigation, visual
# Protocol: The corrosivity potential of ClO2 on metals and bleaching potential of ClO2 on household carpeting were evaluated through pre- and post treatment visual observations made throughout the structure.
# Corrosivity potential was assessed by observation of typical metal items present within the structure (e.g. screws, door hinges, HVAC system components, etc.). […] Each piece of copper was “scuffed” clean prior to fumigation to ensure that any changes in the metal due to ClO2 exposure would be readily recognizable. Photographs were taken of the copper pipe pieces before and after treatment to document visual observations made.
# SRBs and sulfur bacteria = experiment: Chlorine dioxide fumigation of Chinese wallboard, SRB kill; format: cell-based; conditions: 65% RH and 65° F., enclosed structure
# Protocol: Two square ([…]) samples of ⅝ inch Chinese wall board are collected from the structure that reported odor issues from different areas of the structure. […] The samples are split into four 25 cm×25 cm squares with the exposed ends of the sheetrock taped and painted with the same paint used within the structure. Two squares from each sample are placed into a chlorine dioxide fumigation chamber and fumigated with chlorine dioxide to a CT value of 9000 ppmv hours at 65% RH and 65° F. The other two squares from each sample are held in sealed bags as test blanks.
# Upon completion of the test, each of the samples can be sampled as follows: Each core sample is homogenized in 10 ml of an anaerobic SRB broth, and 1 ml of the broth is transferred to 10 ml of broth in an anaerobic container and diluted serially out to a 104th dilution. The broth bottles are incubated at 25° C. for 21 days. Each day growth is recorded, and a lab blank negative control is performed on the initial broth.
# [4] = tested on: Bacillus atrophaeus spores; experiment: BI spore strip viability test, strips inside wall cavities during ClO2 fumigation; format: cell-based; conditions: Bacillus atrophaeus spore strips in wall cavities; incubated seven days; both positive controls grew
# Excerpt: BI Spore Strips—BI spore strips, each containing an approximate 2.5×103 titer of B. atrophaeus spores, were placed within wall cavities of the structure at the same 20 locations where wallboard samples had been collected, prior to insertion of the 2-inch expansion plugs. The B. atrophaeus species was selected due to its historical use as a biological indicator for ClO2 fumigations
# Spore strips are thin cellulose pads that have been impregnated with a defined titer of bacterial spores. Each spore strip is encased in a Tyvek® pouch to allow for effective penetration of fumigant gas yet protect the strip from contamination by external sources. The BIs were obtained from SGM Biotech Inc., 10 Evergreen Drive, Suite E, Bozeman, Mont. (Lot #ACD-113e). All BIs were supplied from the same product batch in order to ensure uniformity in spore titer. Relevant production QA/QC data for the specific lot number have been kept on file for future reference.
# All BIs were retrieved promptly following fumigation and sent to Sabre's Slingerlands, N.Y. laboratory facility for analysis. Each spore strip was aseptically placed in a growth media tube containing 15 milliliters of trypticase soy broth (BD Diagnostics product #221823, Lot # 7337460) and incubated at 37 degrees Centigrade. Spore strips were evaluated daily for the presence or absence of indicator organism growth for a total of seven days. […]
# [5] = after fumigation, side-by-side with untreated carpet
# Protocol: Bleaching potential of ClO2 was assessed by observation of carpet color and brightness throughout the structure both pre- and post-treatment. A piece of carpeting was also removed from a closet within the structure prior to fumigation and used for direct visual comparison with treated carpet following completion of the process.
structure (smiles),measurement,setting,value
"[O][Cl+][O-] [ClO2, chlorine dioxide]",SRB growth after ClO2 treatment,[1],negative for SRB growth
same,Reduced-sulfur gas odors after fumigation,[2],completely eliminated
same,Corrosive effect on common metal items in the structure,[3],no corrosive effect was visible
same,Changes in scuffed copper pipe pieces,[3]; some pieces had a gold-like tint,no changes were observed
same,CT of fumigation that eliminates growth of SRBs and sulfur bacteria and oxidizes reactive sulfides,SRBs and sulfur bacteria,about 9000 ppmv hours
same,Surrogate test organism growth on BI spore strips after ClO2 treatment,[4],negative for surrogate test organism growth
same,Bleaching effect on carpet color and brightness,[5],no meaningful bleaching effect
